Values after ≈ are worked out from the molar mass of the structure shown. “Also recorded” adds a separate entry of the source. Marks after values point to notes of the source that are not given here.
Legend:
W. anomalus DSM 6766 = assay: MIC against fungi (antimicrobial assay); format: cell-based, Wickerhamomyces anomalus; conditions: – = no activity observed under test conditions
Procedure: (§1) The antimicrobial activities of compounds 1–7 (Acp A–G) were assessed against different bacterial and fungal strains in addition to their cytotoxic effects on two mammalian cell lines. The tested microorganisms comprised a diverse array of clinically relevant pathogens, encompassing sensitive indicator strains. Among the Gram-positive bacteria were Bacillus subtilis, Staphylococcus aureus, and Mycolicibacterium smegmatis. Gram-negative bacteria included Acinetobacter baumannii, Chromobacterium violaceum, Escherichia coli, and Pseudomonas aeruginosa. Additionally, filamentous fungi such as Mucor hiemalis and yeasts including Candida albicans, Wickerhamomyces anomalus, Rhodotorula glutinis, and Schizosaccharomyces pombe were included. Generally, all compounds presented similar biological properties, summarized in weak or no activity against fungal pathogens as well as weak to moderate inhibition of Gram-positive bacteria (Table 2).
(§2) The antimicrobial and cytotoxic assays were performed according to the methods reported previously.[57]

R. glutinis DSM 10134 = assay: MIC against fungi (antimicrobial assay); format: cell-based, Rhodotorula glutinis; conditions: – = no activity observed under test conditions
Procedure: as §1, §2

C. albicans DSM 1665 = assay: MIC against fungi (antimicrobial assay); format: cell-based, Candida albicans
Procedure: as §1, §2

M. hiemalis DSM 2656 = assay: MIC against fungi (antimicrobial assay); format: cell-based, Mucor hiemalis
Procedure: as §1, §2

S. pombe DSM 70572 = assay: MIC against fungi (antimicrobial assay); format: cell-based, Schizosaccharomyces pombe
Procedure: as §1, §2

S. aureus DSM 346 = assay: MIC against bacteria (antimicrobial assay); format: cell-based, Staphylococcus aureus; conditions: for MIC: Staphylococcus aureus, DSM346, DSM 346, – = no activity observed under test conditions
Procedure: as §1, §2

[1] = test system: preformed biofilms of S. aureus DSM 1104; assay: CFU count analysis, synergistic effects on preformed biofilms; format: cell-based, Staphylococcus aureus; conditions: Acp A 7.8–3.9 μg/mL, GM 7.8–2 μg/mL, Vac 15.6–3.9 μg/mL
Procedure: The seed culture of S. aureus DSM 1104 was prepared as previously described, and the OD600 was adjusted to match the turbidity of a 0.001 McFarland standard. Then, 150 μL of bacterial solution in CASO with 4% glucose broth was incubated in 96-well tissue plates (TPP tissue culture ref no. 92196, Switzerland) for 24 h at 150 rpm. […] Methanol (2.5%) was used as the solvent control. The plates were incubated for a further 24 h at 37 °C. Colony-forming unit (CFU) count analysis of arcopilin A, antibiotics (vancomycin and gentamicin), and their combinations was performed as previously described.[58] Cells were suspended in the well 50 times. Dilution series in 1 to 10 steps (20 μL in 200 μL) were prepared down to a final dilution level of 10^–6, and 100 μL of this last dilution was platted on LB agar plates using 3 mm small glass beads (5 to 10, Omnilab, Germany) to homogeneously spread the liquid. Individual colonies on agar plates were counted after incubation at 30 °C for 24 and 48 h.[60] Afterward, CFUs were calculated by considering the dilution factors. Error bars indicate the SD of duplicate with two repeats.

C. violaceum DSM 30191 = assay: MIC against bacteria (antimicrobial assay); format: cell-based; conditions: Chromobacterium violaceum, DSM30191, – = no activity observed under test conditions
Procedure: as §1, §2

E. coli DSM 1116 = assay: MIC against bacteria (antimicrobial assay); format: cell-based; conditions: Escherichia coli, DSM1116, – = no activity observed under test conditions
Procedure: as §1, §2

[2] = test system: planktonic cells of S. aureus DSM 1104; assay: Checkerboard broth dilution assay (FICI); format: cell-based, Staphylococcus aureus; conditions: for MIC: Staphylococcus aureus, DSM1104, compound alone, read-out: MIC of each single compound (MICs)
Description: After assessing the effects of Acp A on the pathogen S. aureus, we delved deeper into the interaction of Acp A with established antibiotics (GM and Vac). This exploration focused on both planktonic cells and preformed biofilms of S. aureus. Consequently, we used a checkerboard assay to determine the fractional inhibitory concentration index (FICI) for combinations involving Acp A, GM, or Vac based on both their MIC values in combination.[49]
The interaction between arcopilin A, vancomycin, and gentamicin against S. aureus DSM 1104 was evaluated using a checkerboard broth dilution method to determine the fractional inhibitory concentration indices (FICIs), calculated as FIC = MIC of drug A in combination/MIC of drug A alone + MIC of drug B in combination/MIC of drug B alone.[59] The FICIs were interpreted as synergistic (FICI ≤ 0.5). For this assay, a seed culture was prepared as previously described to inoculate fresh CASO with 4% glucose broth to match the turbidity of a 0.1 McFarland standard suspension. Then, 100 μL of bacterial suspension was distributed in 96-well nontissue microtiter plates (TPP nontissue culture ref no. 92197, Switzerland). Arcopilin A (7.8–2 μg/mL) and antibiotics (vancomycin and gentamicin: 31.3–0.016 μg/mL) were added in increasing concentrations in columns and rows, respectively. The experiments were conducted in duplicate.

KB-3-1 (ACC 158) = assay: Cytotoxicity against mammalian cell lines; format: cell-based; conditions: Homo sapiens, KB 3-1; ACC 158; – = no activity observed under test conditions; read-out: IC50 against mammalian cell lines, KB-3-1
Procedure: as §1, §2

L929 (ACC 2) = assay: Cytotoxicity against mammalian cell lines; format: cell-based; conditions: Mus musculus, L929; ACC 2; – = no activity observed under test conditions; read-out: IC50 against mammalian cell lines, L929
Procedure: as §1, §2

[3] = test system: preformed biofilms of S. aureus DSM 1104; assay: Disruption of preformed biofilms, crystal violet assay; format: cell-based, Staphylococcus aureus
Procedure: Therefore, Acp A–G were evaluated against preformed biofilms of S. aureus using crystal violet staining.[47]
Cultures of S. aureus DSM 1104 were prepared by inoculating 1 mL aliquots from a frozen stock (−20 °C) into 25 mL of CASO medium and incubating them overnight at 37 °C with shaking at 130 rpm.
The crystal violet assay was performed according to a previously reported procedure.[47] Arcopilins A–G were tested in serial dilutions (250–2 μg/mL), with methanol and microporenic acid A (MAA) as negative and positive controls, respectively. Statistical differences between samples and the controls were determined using a two-tailed Student’s t test, with statistical significance defined as p < 0.01. Statistical analysis was carried out using GraphPad Prism 9 (GraphPad Software, San Diego, CA).[58]

B. subtilis DSM 10 = assay: MIC against bacteria (antimicrobial assay); format: cell-based, Bacillus subtilis
Procedure: as §1, §2

S. aureus DSM 1104 = assay: MIC against bacteria (antimicrobial assay); format: cell-based, Staphylococcus aureus
Description: The tested microorganisms comprised a diverse array of clinically relevant pathogens, encompassing sensitive indicator strains. Among the Gram-positive bacteria were Bacillus subtilis, Staphylococcus aureus, and Mycolicibacterium smegmatis. Gram-negative bacteria included Acinetobacter baumannii, Chromobacterium violaceum, Escherichia coli, and Pseudomonas aeruginosa. Additionally, filamentous fungi such as Mucor hiemalis and yeasts including Candida albicans, Wickerhamomyces anomalus, Rhodotorula glutinis, and Schizosaccharomyces pombe were included.
as §2

[4] = test system: preformed biofilm cells of S. aureus DSM 1104; assay: XTT assay, metabolic activity in preformed biofilm cells; format: cell-based, Staphylococcus aureus; conditions: 24 h treatment
Procedure: The seed culture of S. aureus DSM 1104 was prepared as previously described, and its OD600 was adjusted to match the turbidity of a 0.001 McFarland standard. Next, 150 μL of this bacterial solution in CASO with 4% glucose broth was incubated in 96-well tissue plates (TPP tissue culture ref no. 92196, Switzerland) for 24 h at 150 rpm. After incubation, the supernatant was discarded and 150 μL of the fresh media was added to the wells, along with serially diluted arcopilin A (31.3–0.5 μg/mL). The plate was further incubated for 24 h. Afterward, XTT (Cell profile XTT kit, Roche, Switzerland) was prepared in phosphate-buffered saline (PBS) at a final concentration of 0.3 mg/mL. The plate was washed three times with PBS buffer, and then, 150 μL of the prepared XTT solution was added to each well. Plates were further incubated for an additional 4 h at 37 °C while shaking (150 rpm), and absorbance was measured at 490 nm using a plate reader (Synergy 2, BioTek, Santa Clara). Methanol (2.5%) was used as the solvent control. Error bars indicate the standard deviation (SD) of duplicate with two repeats.

[5] = supplement CSV, decimal comma, unit not given, in µg/mL

With `C[C@@H]1[C@H](O)[C@@H](C)/C=C/C=C/CC/C=C/C=C/C=C/C=C/C(O[C@H]2O[C@H](C)[C@@H](O)[C@H](N)[C@@H]2O)CC2O[C@](O)(CC(O)C(O)CCC(O)CC(O)CC(O)CC(=O)O[C@H]1C)CC(O)C2C(=O)O` (stereo partly drawn) [Nystatin, reference compound] the “MIC against fungi, W. anomalus” value (W. anomalus DSM 6766) was 8.3^e μg/mL, the “MIC against fungi, R. glutinis” value (R. glutinis DSM 10134) was 4.2^e μg/mL and the “MIC against fungi, C. albicans” value (C. albicans DSM 1665; DSM 1665, – = no activity observed under test conditions) was 8.3^e μg/mL. For the same compound, the “MIC against fungi, M. hiemalis” value (M. hiemalis DSM 2656; DSM 2656, – = no activity observed under test conditions) was 8.3^e μg/mL and the “MIC against fungi, S. pombe” value (S. pombe DSM 70572; DSM 70572, – = no activity observed under test conditions) was 4.2^e μg/mL.
For `CNC(C)C1CCC(N)C(OC2C(N)CC(N)C(OC3OCC(C)(O)C(NC)C3O)C2O)O1` (stereo not drawn) [Gentamicin], the MIC (S. aureus DSM 346) was 0.4 µg/mL (≈ 0.838 µM), the “improvement in the inhibitory effects in combination with Acp A” value [1] was about 3 fold and the MIC (C. violaceum DSM 30191) was 0.42 µg/mL (≈ 0.879 µM). For the same compound, the MIC (E. coli DSM 1116) was 1.7 µg/mL (≈ 3.56 µM), the “increase of the potency of the antibiotic in combination with Acp A” value ([2]; Acp A 3.9 μg/mL, MIC alone versus in combination) was “up to 115 fold” and the “FICI, Acp A and GM” value ([2]; FICI < 0.5: synergistic, value belongs to the combination) was under 0.5. The MIC [2] was 15.6 µg/mL and the “MIC in combination (MICc), Acp A and GM” value ([2]; combination of Acp A (3.9 μg/mL) with GM) was 0.13 µg/mL.
In the case of `CC(=O)[C@H](C)C[C@@H](C)C[C@H](C)C(=O)C1=C(O)/C(=C/c2ccccc2)NC1=O` [Acp A, Arcopilin A], the MIC (S. aureus DSM 346) is reported as 66.7 µg/mL (≈ 181 µM), the “MIC S. aureus” value (S. aureus DSM 346; supplement CSV, S. aureus, decimal comma, unit not given, in µg/mL) is reported as 66,7 and the IC50 (KB-3-1 (ACC 158)) is reported as 8.9 µg/mL (≈ 24.1 µM). For the same compound, the IC50 (L929 (ACC 2)) was 14 µg/mL (≈ 37.9 µM), the MIC [2] was 31.3 µg/mL and the “decrease of the MIC value when combined with each antibiotic” value ([2]; combined with GM or Vac) was about 10 fold. The “efficacy toward preformed biofilms” value ([3]; at 3.9 μg/mL) was 35–45%, the “efficacy toward preformed biofilms” value ([3]; concentration range 15.6 to 250 μg/mL) was 50–60% and the “disrupting effect on preformed biofilms (in words)” value ([3]; tested 250–2 μg/mL) was “most promising disrupting effects; also recorded: remarkable effectiveness”. The MIC (B. subtilis DSM 10; Bacillus subtilis, DSM10, DSM 10, – = no activity observed under test conditions) was 66.7 µg/mL (≈ 181 µM), the “MIC B. subtilis” value (B. subtilis DSM 10; [5]) was 66,7 and the MIC (S. aureus DSM 1104; Staphylococcus aureus, DSM1104, DSM 1104) was 31.3 µg/mL (≈ 84.7 µM). The “MIC S. aureus” value (S. aureus DSM 1104; supplement CSV, second S. aureus column (value matches DSM 1104 of Table 2), decimal comma, unit not given, in µg/mL) was 31,3, the “lowest concentration with significant reduction in metabolic activity” value [4] was 3.9 µg/mL and the MIC (C. albicans DSM 1665; Candida albicans, DSM1665, DSM 1665, – = no activity observed under test conditions) was 66.7 µg/mL (≈ 181 µM). The “MIC C. albicans” value (C. albicans DSM 1665; [5]) was 66,7, the MIC (M. hiemalis DSM 2656; Mucor hiemalis, DSM2656, DSM 2656, – = no activity observed under test conditions) was 66.7 µg/mL (≈ 181 µM) and the “MIC M. hiemalis” value (M. hiemalis DSM 2656; [5]) was 66,7. For the same compound, the MIC (S. pombe DSM 70572; Schizosaccharomyces pombe, DSM70572, DSM 70572, – = no activity observed under test conditions) was 66.7 µg/mL (≈ 181 µM) and the “MIC S. pombe” value (S. pombe DSM 70572; [5]) was 66,7.
